For this test, the target named is T1, Human complement C1s enzyme (Homo sapiens, UniProt P09871).
T1 sequence (P09871 438-688 limits assumed): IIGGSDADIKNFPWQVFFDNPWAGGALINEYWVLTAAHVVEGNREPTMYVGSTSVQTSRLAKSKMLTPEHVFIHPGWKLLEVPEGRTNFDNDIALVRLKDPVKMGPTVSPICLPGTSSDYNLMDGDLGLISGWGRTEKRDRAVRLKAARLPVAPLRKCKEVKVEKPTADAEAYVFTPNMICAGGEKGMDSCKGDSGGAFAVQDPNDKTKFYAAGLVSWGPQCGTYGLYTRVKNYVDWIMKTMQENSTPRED
T1 sequence (P09871 16-437 partner limits assumed): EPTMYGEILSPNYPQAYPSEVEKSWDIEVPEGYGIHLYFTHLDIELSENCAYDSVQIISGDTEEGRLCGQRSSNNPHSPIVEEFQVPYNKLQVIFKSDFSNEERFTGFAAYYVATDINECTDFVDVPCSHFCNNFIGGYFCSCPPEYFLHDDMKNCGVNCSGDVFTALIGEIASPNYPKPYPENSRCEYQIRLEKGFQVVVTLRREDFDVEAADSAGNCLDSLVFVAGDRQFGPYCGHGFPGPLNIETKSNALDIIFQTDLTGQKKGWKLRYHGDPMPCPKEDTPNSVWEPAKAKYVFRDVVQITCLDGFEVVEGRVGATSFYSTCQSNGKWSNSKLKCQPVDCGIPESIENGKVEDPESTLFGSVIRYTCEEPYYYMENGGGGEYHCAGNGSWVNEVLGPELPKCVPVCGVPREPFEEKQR
In words: Human C1s enzyme assay. The class given is biochemical. Conditions: human complement C1s enzyme 1.16 nM, substrate Z-L-Lys-SBzl 100 μM, 5 min preincubation; read-out: IC50 (Stars), C1s Inhibiting Activity. The method, boiled down: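 Serum-purified human C1s (1.16 nM final) preincubated 5 min at room temperature with compound in 50 mM Tris, 1 M NaCl, pH 7.5. Z-L-Lys-SBzl and DTNB added at 100 μM each; A405 followed every 30 s for 30 min, and IC50 obtained by nonlinear regression of reaction rates.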
For `Cc1ccc(Oc2cccc(C(=O)NCC(=O)N3C[C@H](OC(F)F)C[C@H]3C(=O)NCc3cc4cnccc4[nH]3)c2)c(F)c1` [Compound 260, (2S,4R)-N-((1H-pyrrolo[3,2-c]pyridin-2-yl)methyl)-4-(difluoromethoxy)-1-((3-(2-fluoro-4-methylphenoxy)benzoyl)glycyl) pyrrolidine-2-carboxamide], the IC50 – broadly, the concentration that gives 50% inhibition – is < 0.1 µM.
As for `O=C(NCC(=O)N1C[C@H](OC(F)F)C[C@H]1C(=O)NCc1cc2cnccn2c1)c1ccc2c(c1)Oc1ccccc1S2` [Compound 266, (2S,4R)-4-(difluoromethoxy)-1-((phenoxathiine-3-carbonyl)glycyl)-N-(pyrrolo[1,2-a]pyrazin-7-ylmethyl)pyrrolidine-2-carboxamide], the IC50 was < 0.1 µM.
The result for `C[C@@H](NC(=O)[C@@H]1C[C@](F)(CO)CN1C(=O)CNC(=O)c1ccc2c(c1)Oc1ccccc1S2)c1cc2cnccc2[nH]1` [Compound 148, (2S,4R)-N-((R)-1-(1H-pyrrolo[3,2-c]pyridin-2-yl)ethyl)-4-fluoro-4-(hydroxymethyl)-1-((phenoxathiine-3-carbonyl)glycyl)pyrrolidine-2-carboxamide] reads < 0.1 µM.
The figure for `O=C(NCC(=O)N1C[C@H](OC(F)F)C[C@H]1C(=O)NCc1ccc2nccn2c1)c1ccc2c(c1)Oc1ccccc1S2` [Compound 233, (2S,4R)-4-(difluoromethoxy)-N-(imidazo[1,2-a]pyridin-6-ylmethyl)-1-((phenoxathiine-3-carbonyl)glycyl)pyrrolidine-2-carboxamide] is > 1 µM; for `O=C(NCC(=O)N1CC2(C[C@H]1C(=O)NCc1cc3cnccc3[nH]1)OCCO2)c1cccc(Oc2ccccc2)c1` [Compound 144, (S)-N-((1H-pyrrolo[3,2-c]pyridin-2-yl)methyl)-7-((3-phenoxybenzoyl)glycyl)-1,4-dioxa-7-azaspiro[4.4]nonane-8-carboxamide] it is < 0.1 µM; for `Cc1ccc2c(c1)oc1ccc(C(=O)NCC(=O)N3C[C@H](OC(F)F)C[C@H]3C(=O)NCc3cc4cnccc4[nH]3)cc12` [Compound 332, (2S,4R)-N-((1H-pyrrolo[3,2-c]pyridin-2-yl)methyl)-4-(difluoromethoxy)-1-((7-methyldibenzo[b,d]furan-2-carbonyl)glycyl)pyrrolidine-2-carboxamide] it is < 0.1 µM.
The figure for `O=C(NCC(=O)N1C[C@H](OC(F)F)C[C@H]1C(=O)NCc1ccc2nncn2c1)c1ccc2c(c1)Oc1ccccc1S2` [Compound 225, (2S,4R)-N-([1,2,4]triazolo[4,3-a]pyridin-6-ylmethyl)-4-(difluoromethoxy)-1-((phenoxathiine-3-carbonyl)glycyl)pyrrolidine-2-carboxamide] is > 1 µM; for `O=C(NCC(=O)N1CC2(C[C@H]1C(=O)O)OCCO2)c1ccc(Oc2ccccc2)cc1` [Compound 119, (S)-7-((4-phenoxybenzoyl)glycyl)-1,4-dioxa-7-azaspiro[4.4]nonane-8-carboxylic acid] it is > 1 µM.
As to `C[C@@]12C[C@@H]1N(C(=O)CNC(=O)c1cccc(Oc3ccc(F)cc3)c1)[C@H](C(=O)NCc1cc3cnccc3[nH]1)C2` [Compound 153, (1S,3S,5S)-N-((1H-pyrrolo[3,2-c]pyridin-2-yl)methyl)-2-((3-(4-fluorophenoxy)benzoyl)glycyl)-5-methyl-2-azabicyclo[3.1.0]hexane-3-carboxamide], the IC50 was < 0.1 µM.
The figure for `O=C(NCC(=O)N1C[C@H](OC(F)F)C[C@H]1C(=O)N[C@H](CO)c1cc2cnccc2[nH]1)c1ccc2c(c1)-c1ccccc1C2(F)F` [Compound 103, (2S,4R)-1-((9,9-difluoro-9H-fluorene-3-carbonyl)glycyl)-4-(difluoromethoxy)-N-((S)-2-hydroxy-1-(1H-pyrrolo[3,2-c]pyridin-2-yl)ethyl) pyrrolidine-2-carboxamide] is 0.1 to 1 µM; for `C[C@@H](NC(=O)[C@@H]1C[C@@H](OC(F)F)CN1C(=O)CNC(=O)c1ccc2oc3ccccc3c2c1)c1cc2cnccc2[nH]1` [Compound 220, (2S,4R)-N-((R)-1-(1H-pyrrolo[3,2-c]pyridin-2-yl)ethyl)-1-((dibenzo[b,d]furan-2-carbonyl)glycyl)-4-(difluoromethoxy)pyrrolidine-2-carboxamide] it is < 0.1 µM; for `C[C@@H](NC(=O)[C@@H]1CC2(CCCCC2)CN1C(=O)CNC(=O)c1ccc2c(c1)Oc1ccccc1S2)c1cc2cnccc2[nH]1` [Compound 234, (S)-N-((R)-1-(1H-pyrrolo[3,2-c]pyridin-2-yl)ethyl)-2-((phenoxathiine-3-carbonyl)glycyl)-2-azaspiro[4.5]decane-3-carboxamide] it is < 0.1 µM.
The figure for `C[C@@]12C[C@@H]1N(C(=O)CNC(=O)c1ccc(Oc3ccc(C(F)(F)F)cc3)cc1)[C@H](C(=O)NCc1cc3cnccc3[nH]1)C2` [Compound 139, (1S,3S,5S)-N-((1H-pyrrolo[3,2-c]pyridin-2-yl)methyl)-5-methyl-2-((4-(4-(trifluoromethyl)phenoxy)benzoyl)glycyl)-2-azabicyclo[3.1.0]hexane-3-carboxamide] is 0.1 to 1 µM; for `O=C(NCC(=O)N1CC2(C[C@H]1C(=O)NCc1cc3cnccc3[nH]1)OCCO2)c1ccc(-c2ccccc2)cc1` [Compound 17, (S)-N-((1H-pyrrolo[3,2-c]pyridin-2-yl)methyl)-7-(([1,1′-biphenyl]-4-carbonyl)glycyl)-1,4-dioxa-7-azaspiro[4.4]nonane-8-carboxamide] it is < 0.1 µM.
Regarding `C[C@@H](NC(=O)[C@@H]1C[C@]2(CO)C[C@@H]2N1C(=O)CNC(=O)c1ccc2c(c1)Oc1ccccc1S2)c1cc2cnccc2[nH]1` [Compound 161, (1S,3S,5R)-N-((R)-1-(1H-pyrrolo[3,2-c]pyridin-2-yl)ethyl)-5-(hydroxymethyl)-2-((phenoxathiine-3-carbonyl)glycyl)-2-azabicyclo[3.1.0]hexane-3-carboxamide], the IC50 is < 0.1 µM.
The result for `COC[C@@]1(F)C[C@@H](C(=O)N[C@H](C)c2cc3cnccc3[nH]2)N(C(=O)CNC(=O)c2ccc3c(c2)Oc2ccccc2S3)C1` [Compound 173, (2S,4R)-N-((R)-1-(1H-pyrrolo[3,2-c]pyridin-2-yl)ethyl)-4-fluoro-4-(methoxymethyl)-1-((phenoxathiine-3-carbonyl)glycyl)pyrrolidine-2-carboxamide] reads < 0.1 µM; that for `O=C(NCc1cc2cnccc2[nH]1)[C@@H]1C[C@@H](OC(F)F)CN1C(=O)CN1Cc2ncc(-c3ccc(F)cc3)cc2C1=O` [Compound 138, (2S,4R)-N-((1H-pyrrolo[3,2-c]pyridin-2-yl)methyl)-4-(difluoromethoxy)-1-(2-(3-(4-fluorophenyl)-5-oxo-5,7-dihydro-6H-pyrrolo[3,4-b]pyridin-6-yl)acetyl)pyrrolidine-2-carboxamide], > 1 µM; that for `C[C@@H](NC(=O)[C@@H]1CC2(CN1C(=O)CN1Cc3cc(-c4ccc(F)cc4F)ccc3C1=O)OCCO2)c1cc2cnccc2[nH]1` [Compound 122, (S)-N-((R)-1-(1H-pyrrolo[3,2-c]pyridin-2-yl)ethyl)-7-(2-(5-(2,4-difluorophenyl)-1-oxoisoindolin-2-yl)acetyl)-1,4-dioxa-7-azaspiro[4.4]nonane-8-carboxamide], 0.1 to 1 µM.
The figure for `CC1CCN(C(=O)CNC(=O)c2ccc3c(c2)Oc2ccccc2S3)[C@@H]1C(=O)NCc1cc2cnccc2[nH]1` (stereo partly drawn) [Compound 243, (2S)-N-((1H-pyrrolo[3,2-c]pyridin-2-yl)methyl)-3-methyl-1-((phenoxathiine-3-carbonyl)glycyl)pyrrolidine-2-carboxamide] is > 1 µM.
The result for `O=C(NCC(=O)N1C[C@H](OC(F)F)C[C@H]1C(=O)NCc1cc2cnccc2[nH]1)c1cccc(Oc2ccc(C3CC3)cc2)c1` [Compound 294, (2S,4R)-N-((1H-pyrrolo[3,2-c]pyridin-2-yl)methyl)-1-((3-(4-cyclopropylphenoxy)benzoyl)glycyl)-4-(difluoromethoxy)pyrrolidine-2-carboxamide] reads < 0.1 µM; that for `Cc1ccc2cc(C(=O)NCC(=O)N3CC4(C[C@H]3C(=O)NCc3cc5cnccc5[nH]3)OCCO4)sc2c1` [Compound 281, (S)-N-((1H-pyrrolo[3,2-c]pyridin-2-yl)methyl)-7-((6-methylbenzo[b]thiophene-2-carbonyl)glycyl)-1,4-dioxa-7-azaspiro[4.4]nonane-8-carboxamide], 0.1 to 1 µM.
For the compound `C[C@@H](NC(=O)[C@@H]1C[C@@H](OC(F)F)CN1C(=O)CNC(=O)c1ccc2c(c1)C(F)(F)c1ccccc1-2)c1cc2cnccc2[nH]1` [Compound 167, (2S,4R)-N-((R)-1-(1H-pyrrolo[3,2-c]pyridin-2-yl)ethyl)-1-((9,9-difluoro-9H-fluorene-2-carbonyl)glycyl)-4-(difluoromethoxy)pyrrolidine-2-carboxamide], the IC50 is < 0.1 µM.

These data come from patent US20260062443A1 (ALEXION PHARMACEUTICALS, INC., priority 2022, published 2026).
